Measured values taken from patent US5843968A, “Symmetrical bis-heteroarylmethoxy-phenylalkyl carboxylates as inhibitors of leukotriene biosynthesis” (Abbott Laboratories, priority 1997, dated 1998).
Counter-ions that a name gives are not always drawn. Like-named read-outs stand apart in the source and are kept apart here.

Key:
[1] = tested on: 5-Lipoxygenase; test: Inhibition of calcium ionophore-induced LTB4 formation in human polymorphonuclear leukocytes (PMNL), in vitro; format: cell-based; settings: 15 min preincubation, calcium ionophore stimulation 10 min at 37° C., LTB4 by enzyme-linked immunoassay or HPLC, read-out: IC50, In Vitro Inhibitory Potencies Against 5-Lipoxygenase From Stimulated LTB4 Formation in Human Polymorphonuclear Leukocytes
Description: Inhibition of leukotriene biosynthesis was evaluated in vitro using an assay involving calcium ionophore-induced LTB4 expressed in human polymorphornuclear leukocytes (PMNL). Human PMNL isolated from heparinized (20 USP units/mL) venous blood (25 mL) obtained from healthy volunteers was layered over an equal volume of Ficoll-Hypaque Mono-Poly Resolving Medium (ICN Flow, Costa Mesa, Calif.) and centrifugated at 400×g for 40 minutes at 20° C. The PMNL was collected, erythrocytes lysed and washed 2× and suspended at 1.0×10^7 cells/mL in Earle's balanced salt solution with 17 mM Earle's HEPES. Aliquots of the cell suspension were preincubated with test compounds dissolved in DMSO (final concentration <2%) for 15 minutes and stimulated with calcium ionophore (final concentration 8.3, μM) for 10 minutes at 37° C. Incubations were stopped with the addition of two volumes of ice-cold methanol followed by centrifuging the cell suspensions at 4° C. for 10 minutes at ~450×g. The amount of LTB4 in the methanol extract was analyzed by enzyme-linked immunoassay or by HPLC analysis.

[2] = tested on: leukotriene biosynthesis; test: Inhibition of leukotriene biosynthesis in vivo, Ionophore-Induced Rat Pleural Inflammation Model; settings: 0.5 h, male rats, dosed in 0.2% methocel one hour prior to intrapleural A23187, lavage 30 min later, enzyme immunoassay
Description: Inhibition of leukotriene biosynthesis in vivo was evaluated using the Ionophore […]-Induced Rat Plueral Inflammation Model. […] Rats were dosed with experimental compounds in 0.2% methocel one hour prior to the intrapleural injection of the calcium ionophore, A23187. The rats where lightly anesthetized with Pentrane (Abbott Laboratories) and injected intrapleurally with 0.5 ml of 2% ethanol in injectable saline (Abbott Laboratories) containing 20 μg of A23187 (Cal BioChem-Novabiochem). Thirty minutes later the animals were euthanised and the pleural cavities lavaged with ice cold saline (Abbott Laboratories). The lavage fluid was then added to ice cold methanol (final methanol concentration 30%) to lyse cells and precipitate protein. Eicosanoids were determined by enzyme immunoassay by standard methods.

SMILES | IC50 [1] [µM] | IC50 ([1]; sodium salt) [µM] | inhibition in vivo at 3 mg/kg [2] [%]
CC(CCC(=O)O)(c1ccc(OCc2nc3ccccc3s2)cc1)c1ccc(OCc2nc3ccccc3s2)cc1 [Example 9, 4,4bis(4-(2-benzothiazoylmethoxy)phenyl)pentanoic acid sodium salt] |  | 0.05 | 
CC(CCCON=CC(=O)O)(c1ccc(OCc2ccc3ccccc3n2)cc1)c1ccc(OCc2ccc3ccccc3n2)cc1 [Example 5, [4,4-bis(4-(2-quinolylmethoxy)phenyl)pent-1-yl]iminoxyacetic acid] | 0.03 |  | 
CC(C)(C(=O)O)C(c1ccc(OCc2ccc3ccccc3n2)cc1)c1ccc(OCc2ccc3ccccc3n2)cc1 [Example 26, 2,2-dimethyl-3,3-bis(4-(2-quinolylmethoxy)phenyl)propionic acid sodium salt] | 0.08 |  | 50
CCC(C(=O)O)(c1ccc(OCc2ccc3ccccc3n2)cc1)c1ccc(OCc2ccc3ccccc3n2)cc1 [Example 24, 2,2-bis(4-(2-quinolylmethoxy)phenyl)butyric acid] |  |  | 38
CC(=NOCCCC(C)(c1ccc(OCc2ccc3ccccc3n2)cc1)c1ccc(OCc2ccc3ccccc3n2)cc1)C(=O)O [Example 6, [4,4-bis(4-(2-quinolylmethoxy)phenyl)pent-1-yl]-2-iminoxypropionic acid] | 0.035 |  | 
CC(CCC(=O)O)(c1ccc(OCc2nc3ccccc3s2)cc1)c1ccc(OCc2nc3ccccc3s2)cc1 [Example 8, 4,4-bis(4-(2-benzothiazoylmethoxy)phenyl)pentanoic acid] | 0.046 |  | 
O=C(O)CC(c1ccc(OCc2ccc3ccccc3n2)cc1)c1ccc(OCc2ccc3ccccc3n2)cc1 [Example 34, 3,3-bis(4-(2-quinolylmethoxy)phenyl)propionic acid sodium salt] | 0.07 |  | 30
CC(C)(C=NOCC(=O)O)C(c1ccc(OCc2ccc3ccccc3n2)cc1)c1ccc(OCc2ccc3ccccc3n2)cc1 [Example 27, sodium salt] | 0.028 |  | 42
CC(CCC(=O)O)(c1ccc(OCc2ccc3cc(F)ccc3n2)cc1)c1ccc(OCc2ccc3cc(F)ccc3n2)cc1 [Example 11, 4,4-bis(4-(6-fluoro-2-quinolylmethoxy)phenyl)pentanoic acid sodium salt] | 0.04 |  | 42
CC(=NOCCC#CC(O)(c1ccc(OCc2ccc3ccccc3n2)cc1)c1ccc(OCc2ccc3ccccc3n2)cc1)C(=O)O [Example 38, [5,5-bis(4-(2-quinolylmethoxy)phenyl)-5-hydroxy-3-pentyn-1-yl]-2-iminoxypropionic acid sodium salt] | 0.06 |  | 40
CC(CCC=NOCC(=O)O)(c1ccc(OCc2ccc3ccccc3n2)cc1)c1ccc(OCc2ccc3ccccc3n2)cc1 [Example 7] | 0.04 |  | 

Further lines, with some results ahead:

IC50 [1] [µM] | IC50 ([1]; sodium salt) [µM] | SMILES | inhibition in vivo at 3 mg/kg [2] [%]
0.026 |  | CC(CCC(=O)O)(c1ccc(OCc2ccc3ccccc3n2)c(Cl)c1)c1ccc(OCc2ccc3ccccc3n2)c(Cl)c1 [Example 20, 4,4-bis(3-chloro-4-(2-quinolylmethoxy)phenyl)pentanoic acid] | 
0.034 |  | CC(C)(CON=CC(=O)O)C(c1ccc(OCc2ccc3ccccc3n2)cc1)c1ccc(OCc2ccc3ccccc3n2)cc1 [Example 28, 2,2-dimethyl-3,3-bis(4-(2-quinolylmethoxy)phenyl)-1-propyliminoxyacetic acid] | 
0.035 |  | O=C(O)CON=CC(c1ccc(OCc2ccc3ccccc3n2)cc1)c1ccc(OCc2ccc3ccccc3n2)cc1 [Example 31, 2,2-bis(4-(2-quinolylmethoxy)phenyl)eth-1-yloximinoacetic acid] | 
0.04 |  | CC(CCC(=O)O)(c1ccc(OCc2ccc3ccccc3n2)cc1)c1ccc(OCc2ccc3ccccc3n2)cc1 [Example 1, 4,4-bis(4-(2-quinolylmethoxy)phenyl)pentanoic acid] | 
0.05 |  | CC(O)(c1ccc(OCc2ccc3ccccc3n2)cc1)c1ccc(OCc2ccc3ccccc3n2)cc1 [Example 25, 1,1-bis(4-(2-quinolylmethoxy)phenyl)ethanol] | 
0.032 |  | CC(C(=O)O)(c1ccc(OCc2ccc3ccccc3n2)cc1)c1ccc(OCc2ccc3ccccc3n2)cc1 [Example 12, 2,2-bis(4-(2-quinolylmethoxy)phenyl)propionic acid] | 
0.043 |  | CC(CCCC(=O)O)(c1ccc(OCc2ccc3ccccc3n2)cc1)c1ccc(OCc2ccc3ccccc3n2)cc1 [Example 14, 5,5-bis(4-(2-quinolylmethoxy)phenyl)hexanoic acid] | 32
 | 0.069 | CC(CCC(=O)O)(c1ccc(OCc2ccc3ccccc3n2)cc1)c1ccc(OCc2ccc3ccccc3n2)cc1 [Example 2, 4,4-bis(4-(2-quinolylmethoxy)phenyl)pentanoic acid sodium salt] | 53
0.025 |  | CC(=NOCCC(C)(c1ccc(OCc2ccc3ccccc3n2)cc1)c1ccc(OCc2ccc3ccccc3n2)cc1)C(=O)O [Example 36, [3,3-bis-(2-quinolylmethoxyphenyl)but-1-yl]-2-iminoxypropionic acid] | 
0.05 |  | O=C(O)C(c1ccc(OCc2ccc3cc(F)ccc3n2)cc1)c1ccc(OCc2ccc3cc(F)ccc3n2)cc1 [Example 30, 2,2-bis(4-(6-fluoro-2-quinolymethoxy)phenyl)acetic acid] | 
